According to patent publication US12569438B2, “Nanomaterials containing constrained lipids and uses thereof” (GEORGIA TECH RESEARCH CORPORATION, priority 2019, dated 2026):

System: splenic T cells
Assay: DNA barcode/siGFP high throughput in vivo screen: delivery and enrichment of pooled LNPs in GFP^Low splenic T cells
Set-up: species or system mice
Details: pooled LNPs 1.5 mg/kg total iv, 3 days
Source text: DNA Barcoding. Each chemically distinct LNP was formulated to carry its own unique DNA barcode and siRNA. For example, LNP1 carried DNA barcode 1 and siICAM2, while the chemically distinct LNP2 carried DNA barcode 2 and siGFP. Single stranded DNA sequences were purchased from Integrated DNA Technologies (IDT). To ensure equal amplification of each sequence, we included universal forward and reverse primer regions. Each barcode was distinguished using a unique 8 nucleotide sequence. An 8 nucleotide sequence can generate 65,536 distinct barcodes. 156 distinct sequences designed to prevent sequence ‘bleaching’ on the Illumina MiniSeq sequencing machine were used.
Animal Experiments. […] Mice were injected intravenously via the lateral tail vein. The nanoparticle concentration was determined using NanoDrop (Thermo Scientific).
Cell Isolation & Staining. […]
LNP delivery of siRNA to target cells (in this case, T lymphocytes) as well as 8 off-target cell types in vivo was evaluated. siGFP chemically modified to reduce immunostimulation and enhance on-target silencing via preferential antisense RISC loading (FIG. S2A) was used. […] The GFP acted as the functional delivery readout. […] Thus, 3 days after injecting mice, GFP^Low cells were isolated using fluorescence activated cell sorting (FACS), and deep sequenced to quantify the efficiency with which all N LNPs delivered barcodes into the cells. […]

CCCCC/C=C\C/C=C\CCCCCCCC(=O)OCC(COC(=O)C[C@]12CC3CC(C[C@@H](C3)C1)C2)COC(=O)OCCCN(CC)CC (some centres unmarked) [Lipomer 11-A, 3-[(1-Adamantanyl)acetoxy]-2-{[3-(diethylamino)propoxycarbonyloxy]methyl}propyl (9Z,12Z)-9,12-octadecadienoate]
Normalized DNA delivery (GFP^Low splenic T cells): significantly more delivery than 11-L and 11-S | Enrichment in T Cells (splenic T cells, top 10% vs bottom 10% LNPs, DSPC formulations): most enriched
